Test results: patent US9809586B2, “Inhibitors of collagen prolyl 4-hydroxylase” (WISCONSIN ALUMNI RESEARCH FOUNDATION, priority 2015, dated 2017)

Tests used:
[1] = titration of 20 μM FeSO4; bipy; read-out: Fe20-EC50; cited from earlier work
[2] = cited from earlier work
[3] = system: IRPs; assay: Electrophoretic mobility shift assay for IRE-binding by IRPs from treated cells; type: cell-based, human; settings: treated MDA-MB-231 cells, 24 h, radiolabeled RNA ligand
Experimental: The resultant pellets (˜50 μL) were washed with PBS and then lysed using a protocol described previously.^41 Briefly, cell pellets were resuspended in 200 μL of cell lysis buffer, which was 20 mM Hepes-HCl buffer, pH 7.4, containing sodium pyrophosphate (10 mM), sodium fluoride (50 mM), β-glycerophosphate (50 mM), EDTA (5 mM), GTP (1 mM), sodium orthovanadate (1 mM), benzamidine hydrochloride (2 mM), Nonidet NP-40 (0.5% v/v), p-nitrophenyl p′-guanidinobenzoate-HCl (25 μg/mL), DTT (1 mM), leupeptin (40 μg/mL), pepstatin (4 μg/mL), SBTI (100 μg/mL), MG132 (10 μM), PMSF (200 μM), and BHT (5 μg/mL) by vortexing and lysed on ice by vortexing every few min. After 15 min, the lysates were centrifuged at 14,000 rpm and the supernatants aliquoted and stored at −80° C. until analysis by an electrophoretic mobility shift assay (EMSA).
EMSAs were performed and quantified essentially as described previously.^42 Briefly [^32P]-L-ferritin IRE (1 nM RNA, specific radioactivity ˜7,000 dpm/fmol) was incubated with lysate protein (2.5 μg as determined by the Bradford assay) in binding buffer for 10 min on ice. Heparin was added (to 0.5 mg/mL), and the reaction mixture was incubated for an additional 5 min on ice before separating bound and free RNA on a nondenaturing polyacrylamide gel at ambient temperature.

[4] = biological target: T1, human PHD2 (Homo sapiens, UniProt Q9GZT9); assay: Assay of human PHD2 activity in the presence of inhibitors; type: biochemical; settings: 10 μM compound
T1 construct: made in house
Experimental: The catalytic activity of human PHD2 was assayed as described previously.^36 Briefly, activity assays were carried out at 30° C. in 100 μL Tris-HCl buffer, pH 7.8, containing human NHis6-PHD2181-426 (5 μM), inhibitor (0-50 μM), substrate (HIF-1α peptide556-574, 50 μM), FeSO4 (50 μM), BSA (1 mg/mL), catalase (0.3 mg/mL), sodium ascorbate (2 mM), DTT (1 mM), and α-ketoglutarate (35 μM). Reactions mixtures were pre-incubated with or without inhibitor for 2 min at 30° C., after which the reaction was initiated by the addition of α-ketoglutarate. After 10 minutes, reactions were quenched by boiling for 60 s and centrifuged at 10,000 g. The supernatant (50 μL) was injected into a Nucleodur® C18 Gravity reversed-phase column (4.6×250 mm, 5 μm particle size) from Macherey-Nagel (Bethlehem, Pa.). The column was eluted at 1 mL/min with a gradient (34 min) of 5-56% aqueous acetonitrile containing 0.1% v/v TFA. The absorbance of the eluent was monitored at 218 nm. All assays were performed in triplicate. Data is reported as activity relative to control reactions lacking inhibitor, where activity is determined from the percent conversion of substrate to product.

[5] = biological target: T2, human CP4H1 (Homo sapiens, UniProt P13674); assay: Assay of human CP4H1 activity in the presence of inhibitors; type: biochemical
T2 construct: made in house; host or cells: Origami B(DE3) Escherichia coli
Experimental: The catalytic activity of human CP4H1 was assayed as described previously.^35 Briefly, activity assays were carried out at 30° C. in 100 μL Tris-HCl buffer, pH 7.8, containing human CP4H1 (100 nM), inhibitor (0-500 μM), substrate (dansylGlyProProGlyOEt, 500 μM), FeSO4 (50 μM), BSA (1 mg/mL), catalase (0.1 mg/mL), sodium ascorbate (2 mM), DTT (100 μM), and α-ketoglutarate (100 μM). Reactions were pre-incubated with or without inhibitor for 2 min at 30° C., after which the reaction was initiated by the addition of α-ketoglutarate. After 15 min, reactions were quenched by boiling for 45 s and centrifuged at 10,000 g. The supernatant (20-50 μL) was injected into a Nucleodur® C18 Gravity reversed-phase column (4.6×250 mm, 5 μm particle size) from Macherey-Nagel (Bethlehem, Pa.). The column was eluted at 1 mL/min with a gradient (20 min) of aqueous acetonitrile (20-45% v/v) containing 0.1% v/v TFA. The absorbance of the eluent was monitored at 289 nm. All assays were performed in triplicate. Data are reported as activity relative to control reactions lacking inhibitor, where catalytic activity is determined from the percent conversion of substrate to product. Dose-response curves were generated for each inhibitor by plotting the relative activity versus the log of the inhibitor concentration. IC50-values for each inhibitor were interpolated from the data by non-linear regression using the sigmoidal dose-response function available in Prism.

[6] = system: MDA-MB-231 cells; settings: 500 μM; cited from earlier work
[7] = system: breast cancer; settings: mouse model of breast cancer, Gilkes et al.; cited from earlier work

T2 sequence (P13674 18-534): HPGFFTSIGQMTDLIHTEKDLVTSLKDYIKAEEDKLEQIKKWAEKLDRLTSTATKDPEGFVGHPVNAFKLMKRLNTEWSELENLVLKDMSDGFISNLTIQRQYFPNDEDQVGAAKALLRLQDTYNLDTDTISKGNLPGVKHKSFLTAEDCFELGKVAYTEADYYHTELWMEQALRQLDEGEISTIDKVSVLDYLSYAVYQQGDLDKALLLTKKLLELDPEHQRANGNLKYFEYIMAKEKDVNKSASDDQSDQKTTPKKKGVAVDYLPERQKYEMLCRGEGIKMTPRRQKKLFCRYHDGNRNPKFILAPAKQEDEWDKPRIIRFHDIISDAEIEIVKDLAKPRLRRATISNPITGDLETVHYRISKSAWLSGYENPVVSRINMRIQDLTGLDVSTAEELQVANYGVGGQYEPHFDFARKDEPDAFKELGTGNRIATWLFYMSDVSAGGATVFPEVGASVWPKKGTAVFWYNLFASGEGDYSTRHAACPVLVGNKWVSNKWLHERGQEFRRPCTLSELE
T2 sequence (P07237 18-508 partner): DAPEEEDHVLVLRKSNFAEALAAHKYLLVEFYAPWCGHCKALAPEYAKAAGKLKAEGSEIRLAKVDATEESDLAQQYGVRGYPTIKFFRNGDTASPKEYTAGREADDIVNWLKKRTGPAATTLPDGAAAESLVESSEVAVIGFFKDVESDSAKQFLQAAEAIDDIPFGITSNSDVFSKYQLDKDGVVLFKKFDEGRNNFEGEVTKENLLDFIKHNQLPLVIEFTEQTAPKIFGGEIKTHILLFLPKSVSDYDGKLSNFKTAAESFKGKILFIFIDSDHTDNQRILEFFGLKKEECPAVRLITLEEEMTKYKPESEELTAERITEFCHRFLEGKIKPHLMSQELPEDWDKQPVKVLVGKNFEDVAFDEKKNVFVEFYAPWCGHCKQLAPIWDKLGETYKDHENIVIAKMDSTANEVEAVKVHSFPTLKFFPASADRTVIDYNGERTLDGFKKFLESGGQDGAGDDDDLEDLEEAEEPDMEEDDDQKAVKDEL
T1 sequence (Q9GZT9 181-426 limits assumed): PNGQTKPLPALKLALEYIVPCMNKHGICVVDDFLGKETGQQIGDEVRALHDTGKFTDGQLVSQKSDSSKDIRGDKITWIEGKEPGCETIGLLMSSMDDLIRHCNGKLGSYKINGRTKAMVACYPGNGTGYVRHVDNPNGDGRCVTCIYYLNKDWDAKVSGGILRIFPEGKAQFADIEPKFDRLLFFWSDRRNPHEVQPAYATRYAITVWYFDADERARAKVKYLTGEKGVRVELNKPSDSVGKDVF

SMILES	EC50 [1] [µM]	Heteroaryl pKa (ref.) ([2]; conjugate acid of pyridine (bipy) or the nonpyridyl ring)	pKa ([2]; conjugate acid of the entire compound, bipy)	RNA binding by IRPs [3]	Inhibition of human PHD2 in screen [4]	Inhibition of catalytic activity of human CP4H1 in initial screen ([5]; 10 μM compound, 50 μM FeSO4)	IC50 ([5]; dose-response, mean of three independent experiments) [µM]	Potency relative to pyoxDC ([5]; from dose-response IC50 values)	Collagen secretion [6]	Tumor fibrosis and metastasis [7]
c1ccc(-c2ccccn2)nc1 [bipy, 2,2′-bipyridine, reference compound]	43 ± 2	5.2 (48)	4.3	significant increases	–	–	–	–	–	–
O=C(O)c1ccc(-c2ncc(C(=O)O)[nH]2)nc1 [pyimDC, 2-(5-Carboxy-1-H-imidazol-2-yl)pyridine-5-carboxylic Acid]	–	–	–	–	only weakly	inhibitors	2.6 ± 0.1	approximately 10 fold	–	–
CCOC(=O)c1ccc(O)c(O)c1 [EDHB, Ethyl dihydroxybenzoate]	–	–	–	significant increases	–	–	–	–	diminish collagen secretion significantly	decreases tumor fibrosis and metastasis
